ChEMBL document CHEMBL2046341, “α-glucosidase inhibitors from Brickellia cavanillesii” (J Nat Prod, 2012)

What was measured:
[1] = Inhibition of Saccharomyces cerevisiae alpha-glucosidase using p-nitrophenyl-alpha-D-glucopyranoside as substrate preincubated for 5 mins prior to substrate addition measured after 35 mins by spectrophotocolorimetric assay
[2] = Noncompetitive inhibition of Saccharomyces cerevisiae alpha-glucosidase using p-nitrophenyl-alpha-D-glucopyranoside as substrate by Lineweaver-Burk plot and Dixon plot analysis
[3] = Mixed type inhibition of Saccharomyces cerevisiae alpha-glucosidase using p-nitrophenyl-alpha-D-glucopyranoside as substrate by Lineweaver-Burk plot and Dixon plot analysis
[4] = Competitive inhibition of Saccharomyces cerevisiae alpha-glucosidase using p-nitrophenyl-alpha-D-glucopyranoside as substrate by Lineweaver-Burk plot and Dixon plot analysis

| IC50 [1] | Ki [2] | Ki [4] | Compound | Ki [3] |
| --- | --- | --- | --- | --- |
| 420 µM | 130 µM | – | CC1(C)C=Cc2c(ccc(C(=O)CO)c2O)O1 | – |
| 280 µM | – | – | C=C1C(=O)O[C@@H]2C[C@@H](C)/C=C\C(=O)[C@](C)(O)[C@H](OC(C)=O)[C@@H](OC(=O)/C(C)=C/C)[C@@H]12 [CALEIN C] | 410 µM |
| 340 µM | – | 260 µM | C[C@H]1O[C@H](O[C@H]2[C@H](O)[C@@H](O)[C@@H](O[C@H]3[C@H](O)[C@@H](O)C(O)O[C@@H]3CO)O[C@@H]2CO)[C@H](O)[C@@H](O)[C@@H]1N[C@H]1C=C(CO)[C@@H](O)[C@H](O)[C@H]1O (stereo partly drawn) [ACARBOSE] | – |

| Compound | IC50 [1] | Ki [2] | Ki [4] | Ki [3] |
| --- | --- | --- | --- | --- |
| COc1cc(-c2oc3cc(O)cc(O)c3c(=O)c2O)ccc1O [ISORHAMNETIN] | 160 µM | – | – | 1910 µM |
